Results: article PMC10247784, “Physiological activation of human and mouse bitter taste receptors by bile acids” (Communications Biology, 2023)
Entries after “also recorded” stand apart in the source; their conditions may differ.

Tested on: mouse Tas2rs
Test: Calcium imaging screening of 34 mouse bitter taste receptors
Format: cell-based
Settings: screening of 34 mouse receptors; listed as CDCA
Procedure: This set of bile acids was chosen because of their commercial availability in high purities, their diversity within the class of bile acids and their previous detection and quantitation in human blood. Stock solutions were prepared in DMSO. […] Maximal applied concentrations are due to solubility problems or receptor-independent artefacts during measurement at high bile acid concentrations (Table 1, Table 2)[12],[58]. […]
Cells were loaded using the calcium-sensitive fluorescent dye Fluo-4-AM (Abcam, Cambridge, Great Britain) in the presence of 2.5 mM probenecid (Sigma-Aldrich, Steinheim, Germany) the day after transfection[13],[41]. […] For automated agonist application and measurement of fluorescence changes, a FLIPR^TETRA device (Molecular Devices, San José, United States) was used. […]
Measured data were negative control corrected by subtracting the signal of the mock-transfected cells and exported to Microsoft Excel using the FLIPR software ScreenWorks 4.2. In Microsoft Excel software, standardization of maximum fluorescence intensities to the basal fluorescence and normalization to the buffer-only control was done to calculate the relative fluorescence changes (ΔF/F). […]

In the case of `C[C@H](CCC(=O)O)[C@H]1CC[C@H]2[C@@H]3[C@H](O)C[C@@H]4C[C@H](O)CC[C@]4(C)[C@H]3CC[C@]12C` [Chenodeoxycholic Acid, chenodeoxycholic acid], the “Response of mouse Tas2rs” value is reported as “did not activate any; also recorded: did not obtain any response”.
